Source: paper PMC5760531, “Action Potential Recording and Pro-arrhythmia Risk Analysis in Human Ventricular Trabeculae” (Frontiers in Physiology, 2018)

Assays:
[1] = human free (unbound) effective therapeutic plasma concentration used to calculate multiples; cited from earlier work
[2] = tested on: human ventricular trabeculae; assay: Action potential recording and pro-arrhythmic score analysis in human ventricular trabeculae (hVT);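 also: sharp microelectrode action potential recordings at 37°C in Tyrode-perfused trabeculae, 4 cumulative concentrations each applied 31 min, values averaged over last 30 APs, vehicle 0.1% DMSO as control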
[3] = 1Hz, 0.1-FOLD free ETPC (0.003µM)
[4] = 1Hz, 1-FOLD free ETPC (0.003µM)
[5] = 1Hz, 10-FOLD free ETPC (0.003µM)
[6] = 1Hz, 100-FOLD free ETPC (0.003µM)
[7] = 2Hz, 0.1-FOLD free ETPC (0.003µM)
[8] = 2Hz, 1-FOLD free ETPC (0.003µM)
[9] = 2Hz, 10-FOLD free ETPC (0.003µM)
[10] = 2Hz, 100-FOLD free ETPC (0.003µM)

COc1cc(N)c(Cl)cc1C(=O)NC1CCN(CCCOc2ccc(F)cc2)CC1OC (stereo not shown) [CISAPRIDE, Cisapride]
Free ETPC [1]: 0.003 µM
AMAX [2, 3]: 111
AMAX percentage change compared to vehicle control [2, 3]: -2%
APD30 [2, 3]: 153
APD30 percentage change compared to vehicle control [2, 3]: -14%
APD50 [2, 3]: 205
APD50 percentage change compared to vehicle control [2, 3]: -13%
APD90 [2, 3]: 281
APD90 percentage change compared to vehicle control [2, 3]: -10%
Alternans [2, 3]: 0.75
Alternans percentage change compared to vehicle control [2, 3]: 14%
Beat Escape [2, 3]: 0
Beat Escape percentage change compared to vehicle control [2, 3]: 0%
EADs [2, 3]: 0
EADs percentage change compared to vehicle control [2, 3]: 0%
ERP [2, 3]: 0.45
ERP percentage change compared to vehicle control [2, 3]: 3%
Max Dispersion [2, 3]: 3.28
Max Dispersion percentage change compared to vehicle control [2, 3]: 11%
RMP [2, 3]: -94
RMP percentage change compared to vehicle control [2, 3]: -1%
Refractoriness Escape [2, 3]: 0
Refractoriness Escape percentage change compared to vehicle control [2, 3]: 0%
STV [2, 3]: 0.54
STV percentage change compared to vehicle control [2, 3]: 22%
Triangulation [2, 3]: 127
Triangulation percentage change compared to vehicle control [2, 3]: -3%
AMAX [2, 4]: 111
AMAX percentage change compared to vehicle control [2, 4]: -2%
APD30 [2, 4]: 161
APD30 percentage change compared to vehicle control [2, 4]: -11%
APD50 [2, 4]: 213
APD50 percentage change compared to vehicle control [2, 4]: -10%
APD90 [2, 4]: 286
APD90 percentage change compared to vehicle control [2, 4]: -9%
Alternans [2, 4]: 0.76
Alternans percentage change compared to vehicle control [2, 4]: 16%
Beat Escape [2, 4]: 0
Beat Escape percentage change compared to vehicle control [2, 4]: 0%
EADs [2, 4]: 0
EADs percentage change compared to vehicle control [2, 4]: 0%
ERP [2, 4]: 0.44
ERP percentage change compared to vehicle control [2, 4]: 1%
Max Dispersion [2, 4]: 3.20
Max Dispersion percentage change compared to vehicle control [2, 4]: 8%
RMP [2, 4]: -96
RMP percentage change compared to vehicle control [2, 4]: 0%
Refractoriness Escape [2, 4]: 0
Refractoriness Escape percentage change compared to vehicle control [2, 4]: 0%
STV [2, 4]: 0.57
STV percentage change compared to vehicle control [2, 4]: 42%
Triangulation [2, 4]: 124
Triangulation percentage change compared to vehicle control [2, 4]: -5%
AMAX [2, 5]: 111
AMAX percentage change compared to vehicle control [2, 5]: -1%
APD30 [2, 5]: 148
APD30 percentage change compared to vehicle control [2, 5]: -17%
APD50 [2, 5]: 206
APD50 percentage change compared to vehicle control [2, 5]: -13%
APD90 [2, 5]: 285
APD90 percentage change compared to vehicle control [2, 5]: -8%
Alternans [2, 5]: 0.37
Alternans percentage change compared to vehicle control [2, 5]: -44%
Beat Escape [2, 5]: 0
Beat Escape percentage change compared to vehicle control [2, 5]: 0%
EADs [2, 5]: 0
EADs percentage change compared to vehicle control [2, 5]: 0%
ERP [2, 5]: 0.48
ERP percentage change compared to vehicle control [2, 5]: 11%
Max Dispersion [2, 5]: 2.73
Max Dispersion percentage change compared to vehicle control [2, 5]: -8%
RMP [2, 5]: -99
RMP percentage change compared to vehicle control [2, 5]: 4%
Refractoriness Escape [2, 5]: 0
Refractoriness Escape percentage change compared to vehicle control [2, 5]: 0%
STV [2, 5]: 0.27
STV percentage change compared to vehicle control [2, 5]: -31%
Triangulation [2, 5]: 137
Triangulation percentage change compared to vehicle control [2, 5]: 4%
AMAX [2, 6]: 116
AMAX percentage change compared to vehicle control [2, 6]: 3%
APD30 [2, 6]: 158
APD30 percentage change compared to vehicle control [2, 6]: -12%
APD50 [2, 6]: 224
APD50 percentage change compared to vehicle control [2, 6]: -6%
APD90 [2, 6]: 312
APD90 percentage change compared to vehicle control [2, 6]: 0%
Alternans [2, 6]: 0.54
Alternans percentage change compared to vehicle control [2, 6]: -17%
Beat Escape [2, 6]: 0
Beat Escape percentage change compared to vehicle control [2, 6]: 0%
EADs [2, 6]: 0
EADs percentage change compared to vehicle control [2, 6]: 0%
ERP [2, 6]: 0.49
ERP percentage change compared to vehicle control [2, 6]: 14%
Max Dispersion [2, 6]: 2.75
Max Dispersion percentage change compared to vehicle control [2, 6]: -7%
RMP [2, 6]: -102
RMP percentage change compared to vehicle control [2, 6]: 7%
Refractoriness Escape [2, 6]: 0
Refractoriness Escape percentage change compared to vehicle control [2, 6]: 0%
STV [2, 6]: 0.37
STV percentage change compared to vehicle control [2, 6]: 3%
Triangulation [2, 6]: 154
Triangulation percentage change compared to vehicle control [2, 6]: 17%
AMAX [2, 7]: 110
AMAX percentage change compared to vehicle control [2, 7]: -2%
APD30 [2, 7]: 114
APD30 percentage change compared to vehicle control [2, 7]: -10%
APD50 [2, 7]: 157
APD50 percentage change compared to vehicle control [2, 7]: -8%
APD90 [2, 7]: 228
APD90 percentage change compared to vehicle control [2, 7]: -6%
Alternans [2, 7]: 0.98
Alternans percentage change compared to vehicle control [2, 7]: 18%
Beat Escape [2, 7]: 0
Beat Escape percentage change compared to vehicle control [2, 7]: 0%
EADs [2, 7]: 0
EADs percentage change compared to vehicle control [2, 7]: 0%
ERP [2, 7]: 0.47
ERP percentage change compared to vehicle control [2, 7]: 1%
Max Dispersion [2, 7]: 4.08
Max Dispersion percentage change compared to vehicle control [2, 7]: 3%
RMP [2, 7]: -94
RMP percentage change compared to vehicle control [2, 7]: 0%
Refractoriness Escape [2, 7]: 0
Refractoriness Escape percentage change compared to vehicle control [2, 7]: 0%
STV [2, 7]: 0.76
Triangulation [2, 7]: 114
Triangulation percentage change compared to vehicle control [2, 7]: -2%
AMAX [2, 8]: 109
AMAX percentage change compared to vehicle control [2, 8]: -3%
APD30 [2, 8]: 115
APD30 percentage change compared to vehicle control [2, 8]: -10%
APD50 [2, 8]: 156
APD50 percentage change compared to vehicle control [2, 8]: -10%
APD90 [2, 8]: 225
APD90 percentage change compared to vehicle control [2, 8]: -8%
Alternans [2, 8]: 0.99
Alternans percentage change compared to vehicle control [2, 8]: 20%
Beat Escape [2, 8]: 0
Beat Escape percentage change compared to vehicle control [2, 8]: 0%
EADs [2, 8]: 0
EADs percentage change compared to vehicle control [2, 8]: 0%
ERP [2, 8]: 0.46
ERP percentage change compared to vehicle control [2, 8]: 1%
Max Dispersion [2, 8]: 4.38
Max Dispersion percentage change compared to vehicle control [2, 8]: 10%
RMP [2, 8]: -94
RMP percentage change compared to vehicle control [2, 8]: 0%
Refractoriness Escape [2, 8]: 0
Refractoriness Escape percentage change compared to vehicle control [2, 8]: 0%
STV [2, 8]: 0.66
Triangulation [2, 8]: 110
Triangulation percentage change compared to vehicle control [2, 8]: -6%
AMAX [2, 9]: 114
AMAX percentage change compared to vehicle control [2, 9]: 1%
APD30 [2, 9]: 110
APD30 percentage change compared to vehicle control [2, 9]: -13%
APD50 [2, 9]: 157
APD50 percentage change compared to vehicle control [2, 9]: -9%
APD90 [2, 9]: 231
APD90 percentage change compared to vehicle control [2, 9]: -5%
Alternans [2, 9]: 0.63
Alternans percentage change compared to vehicle control [2, 9]: -24%
Beat Escape [2, 9]: 0
Beat Escape percentage change compared to vehicle control [2, 9]: 0%
EADs [2, 9]: 0
EADs percentage change compared to vehicle control [2, 9]: 0%
ERP [2, 9]: 0.50
ERP percentage change compared to vehicle control [2, 9]: 10%
Max Dispersion [2, 9]: 2.55
Max Dispersion percentage change compared to vehicle control [2, 9]: -36%
RMP [2, 9]: -100
RMP percentage change compared to vehicle control [2, 9]: 6%
Refractoriness Escape [2, 9]: 0
Refractoriness Escape percentage change compared to vehicle control [2, 9]: 0%
STV [2, 9]: 0.45
Triangulation [2, 9]: 122
Triangulation percentage change compared to vehicle control [2, 9]: 4%
AMAX [2, 10]: 114
AMAX percentage change compared to vehicle control [2, 10]: 2%
APD30 [2, 10]: 114
APD30 percentage change compared to vehicle control [2, 10]: -10%
APD50 [2, 10]: 168
APD50 percentage change compared to vehicle control [2, 10]: -3%
APD90 [2, 10]: 254
APD90 percentage change compared to vehicle control [2, 10]: 4%
Alternans [2, 10]: 0.75
Alternans percentage change compared to vehicle control [2, 10]: -9%
Beat Escape [2, 10]: 0
Beat Escape percentage change compared to vehicle control [2, 10]: 0%
EADs [2, 10]: 0
EADs percentage change compared to vehicle control [2, 10]: 0%
ERP [2, 10]: 0.52
ERP percentage change compared to vehicle control [2, 10]: 13%
Max Dispersion [2, 10]: 3.75
Max Dispersion percentage change compared to vehicle control [2, 10]: -6%
RMP [2, 10]: -101
RMP percentage change compared to vehicle control [2, 10]: 7%
Refractoriness Escape [2, 10]: 0
Refractoriness Escape percentage change compared to vehicle control [2, 10]: 0%
STV [2, 10]: 0.56
Triangulation [2, 10]: 140
Triangulation percentage change compared to vehicle control [2, 10]: 20%
